“And” between values parts separate entries of the source, which are not always exact repeats. Identical values can stand only once.
What was measured:
CHO-K1 cells = assay: cells; type: cell-based, Chinese hamster; conditions: for CHOK1 48 h EC10: Chinese hamster; for EC50: Cricetulus griseus, CHO-K1, 48 h, read-out: CHOK1 48 h EC50
Description: A cell growth assay using the MTS reagent was conducted to assess the general toxicity of each chalcone compound. Briefly, cell growth was assayed in sterile 96-well microtiter plates (Costar 3599, Corning Inc., Corning, NY, USA) in the presence of each chalcone. Experiments were conducted in triplicate. In a typical experiment, there are two plates. The first is the control plate, which allows one to assess the starting cell population on the day of drug addition (Day 0). The second plate is the test plate where cells are plated and tested with different drug concentrations on Day 0. For example, either CHO cells or Hs27 cells were plated in a 200 µL volume at 1000 cells/well on both the control and test plates and incubated overnight to allow the cells to adhere. On Day 0, 1 μL of PBS was added to the control plate wells so that their total volume was 201 μL. MTS reagent (Promega Cell Titer 96 Aqueous non-radioactive cell proliferation reagent, Promega, Madison, WI, USA) was added (20 μL) to each well on the control plate, and that plate was incubated for 4 h in a 5% CO2 atmosphere at 37 °C and then read on the plate reader.
On Day 0, 1 μL of a 200× stock solution of each chalcone was added to the respected well on the test plate, and each condition was tested in triplicate. Drug solutions were prepared in advance in 100% DMSO and dosed so that the final DMSO concentration was 0.5%. For example, 1 μL of chalcone solution was added to the cells plated in each well in 200 μL of media. Of note, the respective chalcone addition occurred after an initial overnight incubation of each cell line in each well to reach Day 0 (the drugging day). After the chalcone was added, the cells were incubated in 5% CO2 for 48 h at 37 °C. After 48 h, the MTS reagent (Promega, Madison, WI, USA) was added (20 μL), and the test plates were incubated for an additional 4 h, and then, absorbance at 490 nm was measured on a BioTek Synergy MX plate reader. […] IC50 values were determined from the corresponding plot of relative absorbance at 490 nm vs. the drug concentration.
For highly colored materials like the chalcones, it is important to consider the contribution of the compound’s own absorbance to the MTS assay. To correct for the absorbance contribution of the chalcone itself, we measured each chalcone’s absorbance (Chalcone Abs) at 490 nm at the respective concentration (e.g., 10 µM) and subtracted the absorbance of the media background (blank Abs). This net value was then subtracted out of the Day 2 absorbance value to provide the % relative growth via the following equation:(1) % Relative Growth = (Day 2 Abs−Day 2 blank Abs)−Chalcone Abs−blank Abs−(Day 0 Abs−Day 0 blank Abs)/(Day 2 Control Abs −Day 2 blank Abs)−(Day 0 Abs−Day 0 blank Abs) ×100%
With the chalcones in hand, we then evaluated their growth-inhibition properties in Chinese hamster ovary (CHO-K1) cells and human Hs27 fibroblast cells. […] The results are shown in Table 2 along with a SAR summary of our findings in the host Hs27 cells.

Hs27 cells = assay: Propidium iodide (PI) staining cytotoxicity in Hs27 cells by flow cytometry; type: cell-based; conditions: for PI+ cells: 10 µM, 24 h post-treatment, untreated control subtracted; for PI MTC: 24 h, concentration giving 10% PI+ cells, Hs27 cells, standard curve
Description: Chalcone treatments were performed in DMEM supplemented with 10% HI FBS at the indicated concentrations and for indicated periods of time. Chalcone stocks were reconstituted in 100% dimethyl sulfoxide (DMSO) at a concentration of 10 mM and were serially diluted to working concentrations in DMSO. DMSO control treatments to test the effect of the vehicle were performed at volumes corresponding to the volume of chalcone added during each experiment (i.e., 1 µL chalcone DMSO solution/1 mL DMEM [10 µM] utilized alongside the DMSO control of 1 µL/1 mL DMEM). For cytotoxicity assays, untreated controls were subtracted from DMSO and chalcone sample values to account for the background signal.
For cytotoxicity assays, cells were stained with propidium iodide (PI) at a dilution of 1:100. Cell viability was determined via flow cytometry using the CytoFLEX (Beckman Coulter, Brea, CA, USA). CytExpert software (Beckman Coulter, version 2.4) was used to analyze independent events. PIV5 infection was monitored using flow cytometry via the FITC channel by analyzing GFP expression of individual cells. ZIKV infection was monitored utilizing Flavivirus group antigen–antibody (D1-4G2-4-15; Novus Biologicals, Littleton, CO, USA) staining for the ZIKV envelope protein. Cells were fixed and permeabilized using eBioscience Intracellular Fixation and Permeabilization Buffer (Invitrogen, Thermo Fisher Scientific, MA, USA) according to the manufacturer’s instructions. Secondary staining was performed using an anti-Alexa Fluor 488 (AF488) antibody (Invitrogen, Thermo Fisher Scientific, MA, USA). OC43 infection was monitored utilizing a primary antibody targeted toward the OC43 nucleocapsid protein (NP, MAB9013, Sigma-Aldrich, St. Louis, MO, USA). Secondary staining was performed using an AF488 antibody. Cells were fixed and permeabilized as previously described. LACV infection was monitored utilizing an anti-LACV Gc 807.31ab antibody kindly provided by Andrew Pekosv. Secondary staining was performed using an AF488 antibody. Cells were fixed and permeabilized as previously described.
To determine the actual cytotoxic effects of select chalcones in the series, human fibroblast Hs27 cells were treated with DMSO as a control or treated with each selected chalcone at a concentration of 10 µM. At 24 h post-treatment (hpt), the Hs27 cells were stained with propidium iodide (PI), a stain for cells with permeable plasma membranes, and then processed for flow cytometry (see Figure 4). […] These cytotoxicity findings reflected the relative growth-inhibition properties of 8f, 8l, 8o, 8p, 8s, 8w, 8x, and 8z observed in Table 2 (see Hs27 cell data).
The GFP IC50 was defined as the concentration of chalcone required to inhibit the GFP expression (as measured via flow cytometry) by 50% when compared to DMSO-treated cells. […] To determine these PI MTCs, Hs27 cells were treated with each chalcone at various concentrations for 24 h and then analyzed via flow cytometry for positive PI staining. Untreated controls were subtracted to account for background staining. […] Immediately following infection, media were replaced with chalcone-supplemented media at specified concentrations. GFP expression was analyzed via flow cytometry at 24 hpi.

Row | SMILES | CHOK1 48 h EC10 (CHO-K1 cells) [µM] | EC50 (CHO-K1 cells) [µM] | PI+ cells (Hs27 cells) | PI MTC (Hs27 cells) [µM]
1 | COc1ccc(Br)cc1/C=C/C(=O)c1c(O)cccc1OCCC(C)C [Chalcone 8s, (2E)-3-(5-Bromo-2-Methoxy-Phenyl)-1-[2-Hydroxy-6-(3-Methyl-Butoxy)-Phenyl]-Propenone] | 5.4 ± 0.3 | 8.6 ± 0.3 | 40–60% | 3.5
2 | COc1ccccc1/C=C/C(=O)c1ccccc1O [Chalcone 8a] | 9.3 ± 0.6 | 25.5 ± 2.7 | – | >15
3 | CCOc1ccc(Br)cc1/C=C/C(=O)c1c(O)cccc1OCc1ccc(-c2ccccc2)cc1 [Chalcone 8v, (2E)-1-[2-(Biphenyl-4-Ylmethoxy)-6-Hydroxy-Phenyl]3-(5-Bromo-2-Ethoxy-Phenyl)-Propenone] | 3.7 ± 0.3 | > 50 | – | –
4 | COc1ccc(Br)cc1/C=C/C(=O)c1c(O)cccc1OCc1ccccc1 [Chalcone 8l] | 5.2 ± 0.3 | 8.1 ± 1 | 40–60% and 57.7% | 7.0
5 | COc1cc(/C=C/C(=O)c2c(O)cccc2OCc2ccccc2)cc(OC)c1OC [Chalcone 8z, (2E)-1-(2-Benzloxy-6-Hydroxy-Phenyl)-3-(3,4,5-Trimethoxy-Phenyl)-Propenone] | 3.8 ± 0.4 | 5.8 ± 0.4 | 40–60% | 2.4
6 | COc1ccc(Br)cc1/C=C/C(=O)c1c(O)cccc1OCc1ccc(-c2ccccc2)cc1 [Chalcone 8w, (2E)-1-[2-(Biphenyl-4-Ylmethoxy)-6-Hydroxy-Phenyl]3-(5-Bromo-2-Methoxy-Phenyl)-Propenone] | 6.8 ± 0.3 | 10.1 ± 1 | ~ 11% | 4.5
7 | COc1ccc(O)cc1/C=C/C(=O)c1c(O)cccc1OCc1ccccc1 [Chalcone 8x, (2E)-1-(2-Benzloxy-6-Hydroxy-Phenyl)-5-(5-Hydroxy-2-Methoxy-Phenyl)-Propenone] | 3.8 ± 0.4 | 6.3 ± 0.3 | 40–60% | –
8 | CCOc1ccc(Cl)cc1/C=C/C(=O)c1c(O)cccc1OCc1ccccc1 [Chalcone 8p] | 8.2 ± 0.3 | 25.8 ± 1.1 | < 10% | 8.4
9 | CCOc1ccc(Br)cc1/C=C/C(=O)c1c(O)cccc1OCc1ccccc1 [Chalcone 8o] | 7.0 ± 0.4 | 9.9 ± 0.7 | < 10% and 8.5% | 10.5
10 | COc1ccc(Br)cc1/C=C/C(=O)c1c(O)cccc1OC [Chalcone 8f] | 2.5 ± 0.1 | 6.1 ± 0.8 | 52.60% and 40–60% | 4.9
